Here are results for six compounds from paper PMC12415548 (RSC Advances, 2025).

The term IC50 denotes the point on the concentration scale where inhibition reaches its midpoint. A word on the inhibition: it is the drop in the measured response relative to a control, in per cent.

The subject of one data set is MDA-MB-231 cells. Briefly: Apoptosis induction in MDA-MB-231 cells. To be noted: MDA-MB-231 cells (Fig. 4). It is filed as cell-based, human.
Data set [1] deals with MCF-7 breast cancer cell line. The experiment in a line: MTT cytotoxicity assay, MCF-7. It is filed as cell-based. The note with it: Homo sapiens, MCF7, read-out: IC50 (μg mL^−1) ± SD MCF7.
Data set [2] deals with MRSA (Staphylococcus aureus ATCC 43300). The experiment in a line: Anti-MRSA MIC, broth microdilution. The data set is classed as cell-based. To be noted: for anti-MRSA potency compared to Linezolid: MIC comparison; for Interpretation (of MIC): MRSA, Table 3. For orientation: Broth dilution looks for growth in wells or tubes with falling amounts of substance.
Another data set deals with normal HDF cells. The experiment in a line: Apoptosis/cytotoxicity in normal HDF cells.
The subject of data set [3] is MRSA (Staphylococcus aureus ATCC 43300). The experiment in a line: Minimum bactericidal concentration. To be noted: for Interpretation (of MBC/MIC): Table 4. The data set is classed as cell-based.
For data set [4], the system named is MDA-MB-231 breast cancer cell line. Briefly: MTT cytotoxicity assay, MDA-MB-231. The data set is classed as cell-based. To be noted: Homo sapiens, MDA-MB-231, read-out: IC50 (μg mL^−1) ± SD MDA-MB231. A general note: Formazan colour is commonly taken as a measure of viable cells.
In another data set the target is AChE (Homo sapiens, UniProt P22303). The experiment in a line: Anticholinesterase inhibitory assay. It is filed as biochemical.
Another data set has as its system MCF-7 cells. Briefly: Apoptosis induction in MCF-7 cells. It is filed as cell-based, human. To be noted: MCF-7 cells (Fig. 4).
In another data set the test system is MRSA biofilm. The experiment in a line: Antibiofilm activity, crystal violet assay. The data set is classed as cell-based, Staphylococcus aureus.
In a further data set the test system is MRSA. The experiment in a line: Time-kill assay against MRSA. The data set is classed as cell-based, Staphylococcus aureus. To be noted: 0-24 h.
Data set [5] concerns MCF-7 breast cancer cell line. The note with it: read-out: IC50 in MCF-7; known value quoted for comparison; no reference given; cited from earlier work.

Values after ≈ are worked out from the molar mass of the structure shown. Where two headings read alike, the source gives them in different places.

AChE, sequence (P22303 32-614): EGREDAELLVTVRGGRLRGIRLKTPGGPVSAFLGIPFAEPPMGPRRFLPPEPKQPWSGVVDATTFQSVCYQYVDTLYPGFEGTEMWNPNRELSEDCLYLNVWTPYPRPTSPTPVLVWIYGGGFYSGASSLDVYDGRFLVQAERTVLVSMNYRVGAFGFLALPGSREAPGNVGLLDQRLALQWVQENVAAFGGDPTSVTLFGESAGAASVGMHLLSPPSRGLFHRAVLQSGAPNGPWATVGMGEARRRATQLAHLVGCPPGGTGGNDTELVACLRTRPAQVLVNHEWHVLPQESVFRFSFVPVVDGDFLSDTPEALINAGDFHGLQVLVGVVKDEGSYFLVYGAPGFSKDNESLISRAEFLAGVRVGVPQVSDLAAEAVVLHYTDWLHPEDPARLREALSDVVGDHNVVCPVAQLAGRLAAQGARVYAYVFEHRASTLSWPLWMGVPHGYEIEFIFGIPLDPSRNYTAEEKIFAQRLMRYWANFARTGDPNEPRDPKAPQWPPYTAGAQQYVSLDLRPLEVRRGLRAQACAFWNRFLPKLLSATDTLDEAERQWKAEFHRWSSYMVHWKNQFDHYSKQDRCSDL

With `CN1C(=O)/C(=N\Nc2ncc(-c3cc4ccccc4oc3=O)s2)c2cc(Cl)ccc21` [Compound 5, (Z)-5-chloro-1-methyl-3-(2-(5-(2-oxo-2H-chromen-3-yl)thiazol-2-yl)hydrazono)indolin-2-one], the apoptosis induction entry in the data set on MDA-MB-231 cells and in the data set on MCF-7 cells was “moderate apoptosis” in each case. Besides, the IC50 came to 10.8 ± 1.19 µg/mL (≈ 24.8 µM) in data set [1], 14.4 ± 1.89 µg/mL (≈ 33.1 µM) in data set [4] and 99.8 nM against AChE. Moreover, the “anti-MRSA potency compared to Linezolid” value in [2] is “superior potency”. For the same compound, the “Interpretation (of MIC)” value in data set [2] is given as “Extremely potent”. Also, the “apoptosis / cytotoxicity in normal cells” value in the data set on normal HDF cells is recorded as “significantly lower cytotoxicity”. The compound further came in with an MBC/MIC in [3] of 5.7. In [3], the “Interpretation (of MBC/MIC)” value is “Moderate bactericidal”. Further, the inhibition at 1.3 µg/mL with MRSA biofilm (Staphylococcus aureus, MRSA, read-out: inhibition of MRSA biofilm formation) is about 40%. For the same compound, the “eradication of preformed MRSA biofilms” value in the data set on MRSA biofilm (various concentrations (Fig. 8Z)) is recorded as “eradication efficiency increasing in a concentration-dependent manner”.
As for `CCc1ccc(N2C(=O)/C(=C3/C(=O)N(C)c4ccc(Cl)cc43)NC2=S)cc1` [Compound 9, (Z)-5-chloro-3-(1-(4-ethylphenyl)-5-oxo-2-thioxoimidazolidin-4-ylidene)-1-methylindolin-2-one], the half-inhibitory concentration (IC50) in [1] stood at 24 ± 1.49 µg/mL (≈ 60.3 µM); in data set [4], 28.4 ± 2.19 µg/mL (≈ 71.4 µM); against AChE it was 302 nM. Further, the “anti-MRSA potency compared to Linezolid” value in [2] is reported as “significantly less potent”. In [2], the “Interpretation (of MIC)” value is recorded as “Weak activity”.
For the compound `CN1C(=S)N(c2ccccc2)C(=O)/C1=C1/C(=O)N(C)c2ccc(Cl)cc21` [Compound 12, (Z)-5-chloro-1-methyl-3-(3-methyl-5-oxo-1-phenyl-2-thioxoimidazolidin-4-ylidene)indolin-2-one], the values for the 50% inhibitory concentration (IC50) in [1] and in [4] were 16 ± 1.15 µg/mL (≈ 41.7 µM) and 27.3 ± 2.01 µg/mL (≈ 71.1 µM), respectively.
Consider `COc1cccc2c1C(=O)c1c(O)c3c(c(O)c1C2=O)C[C@@](O)(C(=O)CO)C[C@@H]3O[C@H]1C[C@H](N)[C@H](O)[C@H](C)O1` [Doxorubicin, reference compound], for which the results for the IC50 in data set [1] and in data set [4] were 25.1 ± 1.67 µg/mL (≈ 46.3 µM) and 36.6 ± 2.12 µg/mL (≈ 67.3 µM), respectively.
Turning to `CC(=O)NC[C@H]1CN(c2ccc(N3CCOCC3)c(F)c2)C(=O)O1` [Linezolid, reference compound], the time-kill outcome with MRSA was “remained bacteriostatic, showing no significant kill at any time point”. In addition, in data set [3], the MBC/MIC is given as 17.6 and the “Interpretation (of MBC/MIC)” value was “Bacteriostatic”.
Regarding `CC1(C)CCC(c2ccc(Cl)cc2)=C(CN2CCN(c3ccc(C(=O)NS(=O)(=O)c4ccc(N[C@H](CCN5CCOCC5)CSc5ccccc5)c(S(=O)(=O)C(F)(F)F)c4)cc3)CC2)C1` [Navitoclax, reference compound], the apoptosis induction entry with MDA-MB-231 cells and in the data set with MCF-7 cells was “high levels of apoptosis” each time. The “apoptosis / cytotoxicity in normal cells” value in the data set with normal HDF cells is given as “high levels of apoptosis”. In addition, the IC50 in [5] is 1000 nM.
